How the values were obtained:
injured hind paw = details: rat, in vivo; cited from earlier work
[1] = in vivo; cited from earlier work
[2] = Skin permeation with human abdominal cadaver skin and absorption estimates drawn from it; details: assuming 3.8 fold increase in drug delivery

SMILES | antinociception (injured hind paw) | half-life, rapid phase one [1] | half-life, slow phase two [1] | estimated increased penetration with damaged stratum corneum [2] | systemic effects following topical application (injured hind paw)
CN(C)C(=O)C(CCN1CCC(O)(c2ccc(Cl)cc2)CC1)(c1ccccc1)c1ccccc1 [loperamide, 4-[4-(4-Chlorophenyl)-4-hydroxypiperidin-1-yl]-N,N-dimethyl-2,2-diphenylbutanamide] | rapid dose-dependent antinociception | 2.3 h | 23 h | 0.057 mg | –
CN1CC[C@]23c4c5ccc(O)c4O[C@H]2[C@@H](O)C=C[C@H]3[C@H]1C5 [morphine] | – | – | – | – | revealed systemic effects

Reference: patent publication US20180318279A1 (priority 2015, published 2018)
